Laboratory results taken from patent US20160089464A1, “MALODOR REDUCTION COMPOSITIONS” (The Procter & Gamble Company, priority 2014, published 2016).

Experiment: Comment Code material properties: vapor pressure, ClogP, probability of ingredient color instability, odor detection threshold, melamine formaldehyde PMC headspace response ratio and leakage, liquid dish neat product liquid-air partition coefficient
Type: physicochemical
[1] = cell strings several class symbols together, each letter is one property class of L1
[2] = Table 1 materials, each letter of the code is one property class (vapor pressure, ClogP, color instability, odor detection threshold, PMC headspace ratio, PMC leakage, liquid dish liquid-air partition coefficient)

| Comment Code [1] | Comment Code [2] | Compound |
| --- | --- | --- |
| BCEFHIK |  | COc1ccc(C(C)=O)cc1 [Material 761] |
|  | CEFHJK | CCCOC(C)OCCc1ccccc1 (centres unmarked) [Material 766] |
|  | ACEFGIKL | CCCOC(C)OCCC [Material 767] |
|  | BCEFHJK | COCCOC(C)OCc1ccccc1 (centres unmarked) [Material 768] |
|  | DHJ | CCCCCC(C=O)=Cc1ccc(C)cc1 [Material 769] |
|  | ADHKL | C=CCCCCCCCC=O [Material 770] |
|  | DGJ | O=C1CCCCCC=CCCCCCCCCO1 [Material 771] |
|  | BDEFHJK | C=C(C)C1CCC2(C)CCC=C(C)C2C1 (centres unmarked) [Material 774] |
|  | DEFHJK | CC1=CCCC2(C)CCC(C(C)(C)O)CC12 (centres unmarked) [Material 775] |
| BCEFHIKL |  | Cc1ccc2ncccc2c1 [Material 777] |
|  | CEFHJK | CC(C)c1ccc2ncccc2c1 [Material 778] |
| BDEFGIJKL |  | CCC(C)CC(CC)CCCC(C)O (centres unmarked) [Material 779] |
|  | BCFHJK | CC1(C)C2CC=C(CCC=O)C1C2 (centres unmarked) [Material 781] |
|  | DEFHJK | CC(=O)CCCC(C)CCCC(C)CCCC(C)C (centres unmarked) [Material 782] |
| ACFGIKL |  | CCC(=O)CC(C)CC (centres unmarked) [Material 784] |
|  | ACGIJKL | C=CC1(C)CCC(C(=C)C)O1 (centres unmarked) [Material 786] |
| DEFGJK | DEFGJK | O=C1CCCC=CCCCCCCCCCC1 [Material 788] |
| BCHIK |  | C=Cc1ccc(O)cc1 [Material 789] |
|  | BCHIJK | CC1=CCC(O)(C(C)C)CC1 (centres unmarked) [Material 791] |
|  | BCEFHIK | C=CCCC(=O)c1ccccc1 [Material 792] |
| CEFHIK |  | CCc1ccc(OC)c(O)c1 [Material 797] |
|  | BCHIJK | CC1=CCC(O)(C(C)C)CC1 (centres unmarked) [Material 800] |
|  | BCEFHJK | COc1ccc(CCC(C)=O)cc1 [Material 803] |

| Comment Code [1] | Comment Code [2] | Compound |
| --- | --- | --- |
| BDEFHJK | BDEFHJK | CC1C(=O)CC2(C)CCCC(C)(C)C23CC13 (centres unmarked) [Material 804] |
|  | CEFHK | CCC=C1OC(=O)c2ccccc21 [Material 805] |
|  | BDFHJK | CCCCCCCCCC=CC=O [Material 806] |
|  | BDFHJK | CC(CC=O)CCc1ccccc1 (centres unmarked) [Material 807] |
| CEFHK |  | Cc1n[nH]cc1-c1ccccc1 [Material 808] |
| ACEFGIKL |  | CC1CCC(=O)C1=O (centres unmarked) [Material 810] |
| BCHIK |  | COc1cc(C)cc(O)c1 [Material 811] |
| ACGIKL |  | COC(C)(C)CCO [Material 812] |
|  | ADEFHJKL | CCC=CCCOC(=O)CC(C)C [Material 814] |
| ACEFHIKL |  | CCC=CCCO [Material 817] |
| ADFHIJK |  | C=C(C=O)C(C)CCC=C(C)C (centres unmarked) [Material 819] |
| BDEFGIJKL |  | CC(C)CCCC(C)CCO (centres unmarked) [Material 820] |
|  | ADEFHIJKL | CCC(C)CCC(C)(CC)OC(C)=O (centres unmarked) [Material 821] |
|  | BDFHJK | CC(C)c1ccc(CCC=O)cc1 [Material 826] |
|  | BDEFHJK | CCCCCCCCC=CC#N [Material 827] |
|  | ADHJK | CCCCCCCCC=CC=O [Material 828] |
|  | ACHKL | CC/C=C/CC/C=C/C=O [Material 829] |
|  | DEFHJK | CCCC(=O)OCCc1ccccc1 [Material 831] |
| BCEFHK |  | CC(=O)OCCc1ccccc1 [Material 832] |
|  | CHJ | O=CC(=Cc1ccco1)c1ccccc1 [Material 833] |
| BCEFHJK |  | CCC(=O)OCCc1ccccc1 [Material 835] |
| DEFHIKL |  | CCCCCC1CCCC1O (centres unmarked) [Material 836] |
|  | ADHKL | CCCCCCC=CC=O [Material 837] |

| Comment Code [1] | Comment Code [2] | Compound |
| --- | --- | --- |
| BDEFHJK |  | CCCCCCCC1(C)OCC(C)O1 (centres unmarked) [Material 838] |
|  | BDEFGIKL | CCCCCCCC(C)O (centres unmarked) [Material 839] |
|  | ADFHIKL | CCCCCCCC(C)=O [Material 840] |
| BCEFGIK |  | CCC(C)c1nccnc1OC (centres unmarked) [Material 845] |
| ACEFGIJK |  | CNC(=O)C(C)(C(C)C)C(C)C [Material 846] |
| ADFGIJKL |  | CC(C)CC=C(C=O)C(C)C [Material 847] |
| ACHIJKL |  | Cc1csc(C(C)C)n1 [Material 848] |
|  | CEFHJK | CC(C)Cc1ccc2ccccc2n1 [Material 849] |
|  | DFHJKL | CCCCCC=C1CCCC1=O [Material 850] |
| ACEFHIKL |  | CCCC=CCO [Material 851] |
|  | BDEFHJKL | CCCCCCCC1CCCO1 (centres unmarked) [Material 852] |
|  | ADHKL | CCCCCCCC=CC=O [Material 856] |
|  | ACHKL | CCC=CCCC=CC=O [Material 864] |
|  | ACEFHK | CCC=CCCC=CCO [Material 865] |
|  | ADFGIJKL | CCC(C)CCCC(C)C=O (centres unmarked) [Material 866] |
|  | BDEFGJK | CCCCCCCCCCO [Material 868] |
|  | ACEFHKL | CCCCCC=COC(C)=O [Material 869] |
|  | DEFHJK | C=CCCCCCCCCCO [Material 870] |
|  | ADHJK | C=CCCCCCCCCC=O [Material 871] |
|  | DFHJK | CC1=C2CC(C(C)(C)O)CCC2(C)CCC1 (centres unmarked) [Material 872] |
|  | ADEFHIJKL | CC12CCC(CC1)C(C)(C)S2 [Material 873] |
| ADGIJKL |  | CC(C)C12CCC(C)(CC1)O2 [Material 875] |
|  | ADEFHJKL | C=CC=CC=CCCCCC [Material 876] |

| Comment Code [1] | Comment Code [2] | Compound |
| --- | --- | --- |
|  | BCEFGIJKL | CCC(C)(O)CCC=C(C)C (centres unmarked) [Material 877] |
|  | ADEFHIJKL | CC(=O)OC1C2(C)CCC(C2)C1(C)C (centres unmarked) [Material 878] |
|  | ADHIJKL | CC1C(C)(C)c2ccccc2C1(C)C [Material 879] |
| BDHIJK |  | CC=CC(=O)C1C(C)=CCCC1(C)C (centres unmarked) [Material 880] |
|  | DEFHJK | CC(=O)OC(C)CCC=C(C)CCC=C(C)C (centres unmarked) [Material 881] |
| ACEFHKL |  | CCC/C=C\CCOC(C)=O [Material 882] |
| ACEFGIJKL |  | CC1=CC(=O)C2CC1C2(C)C (centres unmarked) [Material 883] |
|  | BCFHJK | CCCCCCCC/C=C\CC=O [Material 884] |
| BCEFGIJK |  | C=C[C@](C)(O)CCC=C(C)C [Material 888] |
| ACHIJKL |  | CC(C)=CCCC(C)CC=O (centres unmarked) [Material 889] |
|  | DEFHJK | CC(=O)OC(C)CC/C=C(\C)CCC=C(C)C (centres unmarked) [Material 890] |
| ACHIJKL |  | CC(C)=CCCC(C)CC=O (centres unmarked) [Material 891] |
|  | DEFHJK | C/C(=C/C#N)CCc1ccccc1 [Material 892] |
|  | DFHIJK | CC1CCC2(O1)C(C)(C)CCCC2(C)O (centres unmarked) [Material 893] |
|  | CEFHJK | C/C(=C\C#N)CCc1ccccc1 [Material 894] |
|  | BCEFHIJKL | C=C(C)C1CCC(C)C(O)C1 (centres unmarked) [Material 897] |
| BCHIJKL |  | CC(C)=CCCC(C)CCO (centres unmarked) [Material 899] |
| BCHIJKL |  | CC(C)=CCCC(C)CCO (centres unmarked) [Material 900] |
| ADEFGIJKL |  | CC1=CC[C@@H]2C[C@H]1C2(C)C [Material 901] |
| ACGIJKL |  | C=C(C)C1CC=C(C)C(=O)C1 (centres unmarked) [Material 902] |
| ADEFGIJKL |  | CC1=CC[C@H]2C[C@@H]1C2(C)C [Material 903] |
| ACEFGIKL |  | CCC(C)C(=O)OC (centres unmarked) [Material 904] |
|  | CHJK | CC(=CCC1CC=C(C)C1(C)C)CO (centres unmarked) [Material 908] |

| Comment Code [1] | Comment Code [2] | Compound |
| --- | --- | --- |
| BDEFHJKL |  | C/C=C(\C)C(=O)OCCCCCC [Material 909] |
|  | DEFHJK | CC1=CC2CC(C3OCCO3)C1CC2C(C)C (centres unmarked) [Material 912] |
|  | BDHIJK | C=C1CCCC(C)(C)C1C=C(C)C(C)=O (centres unmarked) [Material 913] |
|  | BDHJK | CC(C)c1cccc(C(C)CC=O)c1 (centres unmarked) [Material 914] |
|  | BDEFHJK | C=CC(C)(CCC=C(C)C)OC(C)OCC (centres unmarked) [Material 916] |
| CHJK |  | C=CCOC(=O)COC1CCCCC1 [Material 918] |
| CEFHJK | CEFHJK | CCC(=O)OC1CC2CC1C1CC=CC21 (centres unmarked) [Material 919] |
|  | DEFHJK | CC1=C2CCC(C)C2CC(C(C)(C)O)CC1 (centres unmarked) [Material 920] |
| CFHIJK |  | CC12CCCC(C)(CC1)C2=NO [Material 921] |
|  | BDFHJK | CC(C)(C=O)CC1=CCC2CC1C2(C)C (centres unmarked) [Material 925] |
|  | DEFHJKL | CC(C)=CCCC(C)C12CC=C(C)C1C2 (centres unmarked) [Material 926] |
|  | BCEFHIK | Cc1cccc(CCO)c1 [Material 928] |
|  | ACEFHK | CCC=CCC=CCCO [Material 929] |
|  | BDFHJK | CCCCCCCCCCC=CC=O [Material 930] |
| ACEFHIK |  | C=C(OC(C)=O)c1ccccc1 [Material 931] |
| DEFHIJK | DEFHIJK | CC1CCC2(O)C(C)(C)C3CCC2(C)C1C3 (centres unmarked) [Material 933] |
|  | DEFHJK | CCCCCC(=O)Oc1ccc(C)cc1 [Material 939] |
| ADGIJKL |  | Cc1ccc(C(C)C)cc1 [Material 940] |
|  | BDEFHIJKL | CCCCCCC1OC(=O)CC1C (centres unmarked) [Material 941] |
|  | BDEFHJK | CCCCC/C=C/C=C\C(=O)OCC [Material 942] |
|  | DFHJK | N#CC(=C1CCCCC1)c1ccccc1 [Material 945] |

| Compound | Comment Code [1] | Comment Code [2] |
| --- | --- | --- |
| Cc1coc2c1CCC(C)C2 (centres unmarked) [Material 802] |  | BCEFHIJKL |
| OCCOc1ccccc1 [Material 834] |  | BCEFGIK |
| O=C(Cc1ccccc1)OCc1ccccc1 [Material 922] |  | DHJ |
| C/C=C/c1cc(OC)c(OC)cc1OC [Material 924] |  | BCFGJK |
| C=C(C)C1CC=C(C=O)CC1 (centres unmarked) [Material 946] |  | ACHIJK |
